Laboratory results taken from US11028090B2 (Dong Wha Pharm. Co., Ltd., priority 2017, dated 2021).
Like-named read-outs stand apart in the source and are kept apart here.

Assays:
[1] = target: BRD4 (BD1+BD2) bromodomain (Homo sapiens (Human), UniProt O60885); assay: BRD4 binding inhibition (AlphaScreen, GST-BRD4 vs tetraacetylated histone H4 peptide)
Procedure, shortened: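 GST-BRD4 (BD1+BD2) and biotinylated tetraacetyl-histone H4 peptide, each at 100 nM in HEPES pH 7.4 buffer with BSA and DTT, were combined with compound. Glutathione acceptor and streptavidin donor beads were added, then incubated 30 min at room temperature in the dark. Read-out was AlphaScreen signal.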

[2] = system: acute myelogenous leukemia cells (MV-4-11 cells); assay: Cytotoxicity to acute myelogenous leukemia cells (MV-4-11 cells), CCK-8; conditions: Homo sapiens, MV4-11, 72 h
[3] = GST-BRD4 (BD1+BD2) / biotinylated acetyl-histone H4 (Lys5,8,12,16) peptide, read-out: IC50, BRD4 binding inhibition
[4] = GST-BRD4 (BD1+BD2) vs biotinylated acetyl-histone H4 peptide, AlphaScreen, read-out: BRD4 IC50
[5] = read-out: IC50, cytotoxicity against acute myelogenous leukemia cells
[6] = read-out: MV-4-11 Cytotoxicity IC50

With Cc1nnc2c(NCCCCNC(=O)OC(C)C)nc3cc(-n4ccnc4)ccc3n12 [Example 494, [4-(7-imidazole-1-yl-1-methyl-[1,2,4]triazolo[4,3-a]quinoxaline-4-ylamino)-butyl]-carbamic acid isopropylester] the IC50 [1, 3] was at most 50 nM, the IC50 [1, 4] was 14 nM and the IC50 [2, 5] was at most 200 nM. For the same compound, the IC50 [2, 6] was 110 nM.
Cc1nnc2c(NCCCCNC(=O)c3ccccc3Cl)nc3cc4c(cc3n12)OCCO4 [Example 187, 2-chloro-N-[4-(1-methyl-8,9-dihydro-7,10-dioxa-2,3,5,11b-tetraaza-cyclopenta[a]anthracene-4-ylamino)-butyl]-benzamide] was tested, and the IC50 [1, 3] was at most 50 nM, the IC50 [1, 4] was 24 nM and the IC50 [2, 5] was at most 200 nM. It also gave an IC50 [2, 6] of 110 nM.
COCCOc1cc2nc(NCCCCNC(=O)c3ccccc3)c3nnc(C)n3c2cc1OCCOC [Example 170, N-{4-[7,8-bis-(2-methoxy-ethoxy)-1-methyl-[1,2,4]triazolo[4,3-a]quinoxaline-4-ylamino]-butyl}-benzamide] showed an IC50 [1, 3] of at most 50 nM, an IC50 [1, 4] of 38 nM and an IC50 [2, 6] of 530 nM.
Compound COc1cc(C)c2nc(NCCCCN)c3nnc(C)n3c2c1 [Example 159, N^1-(8-methoxy-1,6-dimethyl-[1,2,4]triazolo[4,3-a]quinoxaline-4-yl)-butane-1,4-diamine ditrifluoroacetic acid] has an IC50 [1, 3] of at most 50 nM, an IC50 [1, 4] of 24 nM and an IC50 [2, 6] of 530 nM.
With COc1ccc2c(c1)nc(NCCCCNC(=O)c1ccccc1F)c1nnc(C)n12 [Example 328, 2-fluoro-N-[4-(7-methoxy-1-methyl-[1,2,4]triazolo[4,3-a]quinoxaline-4-ylamino)-butyl]-benzramide] the IC50 [1, 3] was at most 50 nM, the IC50 [1, 4] was 43 nM and the IC50 [2, 5] was at most 200 nM. The IC50 [2, 6] was 190 nM.
With COCCOc1ccc2c(c1)nc(NCCCCNC(=O)NC1CCCCC1)c1nnc(C)n12 [Example 426, 1-cyclohexyl-3-{4-[7-(2-methoxy-ethoxy)-1-methyl-[1,2,4]triazolo[4,3-a]quinoxaline-4-ylamino]-butyl}-urea] the IC50 [1, 3] was at most 50 nM, the IC50 [1, 4] was 17 nM and the IC50 [2, 5] was at most 200 nM. For the same compound, the IC50 [2, 6] was 190 nM.
Work on Cc1nnc2c(NCCCCNC(=O)OC(C)(C)C)nc3cc(N4CCOCC4)ccc3n12 [Example 497, [4-(1-methyl-7-morpholine-4-yl-[1,2,4]triazolo[4,3-a]quinoxaline-4-ylamino)-butyl]-carbamic acid-tert-butylester] yielded an IC50 [1, 3] of at most 50 nM, an IC50 [1, 4] of 38 nM and an IC50 [2, 6] of 730 nM.
In the case of COc1cc2nc(NCCCCC(=O)NCc3ccccc3)c3nnc(C)n3c2cc1OC [Example 651, 5-(7,8-dimethoxy-1-methyl-[1,2,4]triazolo[4,3-a]quinoxaline-4-ylamino)-pentanoic acid-benzylamide], the IC50 [1, 3] is reported as at most 50 nM, the IC50 [1, 4] is reported as 23 nM and the IC50 [2, 5] is reported as at most 200 nM. The IC50 [2, 6] was 120 nM.
Cc1nnc2c(NCCCCNC(=O)CC(C)C)nc3cc(C(=O)Nc4ccccc4N)ccc3n12 [Example 215, 1-methyl-4-[4-(3-methyl-butyrylamino)-butylamino]-[1,2,4]triazolo[4,3-a]quinoxaline-7-carboxylic acid-(2-amino-phenyl)-amide] showed an IC50 [1, 3] of at most 50 nM, an IC50 [1, 4] of 22 nM and an IC50 [2, 6] of 276 nM.
For COc1ccc2c(c1)nc(NCCCCNC(=O)[C@H](OC)C(C)C)c1nnc(C)n12 [Example 300, 2-(R)-methoxy-N-[4-(7-methoxy-1-methyl-[1,2,4]triazolo[4,3-a]quinoxaline-4-ylamino)-butyl]-3-methyl-butyramide], the IC50 [1, 3] was at most 50 nM, the IC50 [1, 4] was 15 nM and the IC50 [2, 6] was 310 nM.
Work on Cc1nnc2c(NCCCCNC(=O)[C@@H](NS(C)(=O)=O)C(C)C)nc3cc(N4CCOCC4)ccc3n12 [Example 505, 2-(S)-methanesulfonylamino-3-methyl-N-[4-(1-methyl-7-morphonyl-4-yl-[1,2,4]triazolo[4,3-a]quinoxaline-4-ylamino)-butyl]-butyramide] yielded an IC50 [1, 3] of at most 50 nM, an IC50 [1, 4] of 26 nM and an IC50 [2, 6] of 533 nM.
COc1cc2nc(NCCCCNC(=O)CC(C)C)c3nnc(C)n3c2cc1NC(=O)CC(C)(C)C [Example 563] showed an IC50 [1, 3] of at most 50 nM and an IC50 [2, 6] of 559 nM.
COc1cc2nc(NCCCCNC(=O)c3ccccc3)c3nnc(C)n3c2cc1OC [Example 95, N-[4-(7,8-dimethoxy-1-methyl-[1,2,4]triazolo[4,3-a]quinoxaline-4-ylamino)-butyl]-benzamide] was tested, and the IC50 [1, 3] was at most 50 nM, the IC50 [1, 4] was 36 nM and the IC50 [2, 6] was 590 nM.
CCc1nnc2c(NCCCCNC(=O)OC(C)(C)C)nc3cc(OC)ccc3n12 [Example 620, [4-(7-methoxy-1-ethyl-[1,2,4]triazolo[4,3-a]quinoxaline-4-ylamino)-butyl]-carbamic acid-tert-butylester] was tested, and the IC50 [1, 3] was at most 50 nM, the IC50 [1, 4] was 16 nM and the IC50 [2, 6] was 700 nM.
CCCNc1ccc2c(c1)nc(NCCCCNC(=O)CC(C)C)c1nnc(C)n12 [Example 253, 3-methyl-N-[4-(1-methyl-7-propylamino-[1,2,4]triazolo[4,3-a]quinoxaline-4-ylamino)-butyl]-butyramide] gave an IC50 [1, 3] of at most 50 nM, an IC50 [1, 4] of 50 nM and an IC50 [2, 6] of 235 nM.
In the case of CCOc1ccc2c(c1)nc(NCCCCNC(=O)OC(C)C)c1nnc(C)n12 [Example 443, [4-(7-ethoxy-1-methyl-[1,2,4]triazolo[4,3-a]quinoxaline-4-ylamino)-butyl]-carbamic acid isopropylester], the IC50 [1, 3] is reported as at most 50 nM, the IC50 [1, 4] is reported as 13 nM and the IC50 [2, 5] is reported as at most 200 nM. For the same compound, the IC50 [2, 6] was 120 nM.
Work on COc1ccc2c(c1)nc(NCCCCNC(=O)CCC1CCCC1)c1nnc(C)n12 [Example 309, 3-cyclopentyl-N-[4-(7-methoxy-1-methyl-[1,2,4]triazolo[4,3-a]quinoxaline-4-ylamino)-butyl]-propionamide] yielded an IC50 [1, 3] of at most 10 nM, an IC50 [2, 5] of at most 200 nM and an IC50 [2, 6] of 110 nM.
COCCOc1ccc2c(c1)nc(NCCCCNC(=O)OCc1ccccc1)c1nnc(C)n12 [Example 373, {4-[7-(2-methoxy-ethoxy)-1-methyl-[1,2,4]triazolo[4,3-a]quinoxaline-4-ylamino]-butyl}-carbamic acid benzylester] was tested, and the IC50 [1, 3] was at most 50 nM, the IC50 [1, 4] was 20 nM and the IC50 [2, 6] was 420 nM.
For COc1c(C)ccc2c1nc(NCCCCNC(=O)c1ccccc1Cl)c1nnc(C)n12 [Example 140, 2-chloro-N-[4-(6-methoxy-1,7-dimethyl-[1,2,4]triazolo[4,3-a]quinoxaline-4-ylamino)-butyl]-benzamide], the IC50 [1, 4] was 52 nM and the IC50 [2, 6] was 680 nM.
Compound Cc1nnc2c(NCCCCNC(=O)C(C)(C)C)nc3cc4c(cc3n12)OCCO4 [Example 180, 2,2-dimethyl-N-[4-(1-methyl-8,9-dihydro-7,10-dioxa-2,3,5,11b-tetraaza-cyclopenta[a]anthracene-4-ylamino)-butyl]-propionamide] has an IC50 [1, 3] of at most 50 nM, an IC50 [1, 4] of 17 nM and an IC50 [2, 5] of at most 200 nM. It also gave an IC50 [2, 6] of 190 nM.
In the case of CCc1nnc2c(NCCCCNC(=O)OCC(C)C)nc3cc(OC)c(OC)cc3n12 [Example 598, [4-(1-ethyl-7,8-dimethoxy-[1,2,4]triazolo[4,3-a]quinoxaline-4-ylamino)-butyl]-carbamic acid isobutylester], the IC50 [1, 3] is reported as at most 50 nM, the IC50 [1, 4] is reported as 18 nM and the IC50 [2, 6] is reported as 290 nM.
For COc1ccc2c(c1)nc(NCCCCNC(=O)OC1CCCC1)c1nnc(C)n12 [Example 332, [4-(7-methoxy-1-methyl-[1,2,4]triazolo[4,3-a]quinoxaline-4-ylamino)-butyl]-carbamic acid cyclopentylester], the IC50 [1, 3] was at most 50 nM, the IC50 [1, 4] was 17 nM and the IC50 [2, 5] was at most 200 nM. For the same compound, the IC50 [2, 6] was 10 nM.
Work on Cc1nnc2c(NCCCCNC(=O)OC(C)(C)C)nc3cc(N4C[C@@H](C)O[C@@H](C)C4)ccc3n12 [Example 508, {4-[7-(2,6-dimethyl-morphonyl-4-yl)-1-methyl-[1,2,4]triazolo[4,3-a]quinoxaline-4-ylamino]-butyl}-carbamic acid-tert-butylester] yielded an IC50 [1, 3] of at most 50 nM, an IC50 [1, 4] of 29 nM and an IC50 [2, 6] of 575 nM.
For CCCOC(=O)N[C@H](C(=O)NCCCCNc1nc2cc(N3C[C@@H](C)O[C@@H](C)C3)ccc2n2c(C)nnc12)C(C)C [Example 516, (S)-(1-{4-[7-(2,6-dimethyl-morpholine-4-yl)-1-methyl-[1,2,4]triazolo[4,3-a]quinoxaline-4-ylamino]-butylcarbamoyl}-2-methyl-propyl)-carbamic acid propylester], the IC50 [1, 3] was at most 50 nM and the IC50 [2, 6] was 518 nM.
Cc1ccc2[nH]c(-c3ccc4c(c3)nc(NCCCCNC(=O)OC(C)(C)C)c3nnc(C)n34)nc2c1 [Example 219, {4-[1-methyl-7-(5-methyl-1H-benzoimidazole-2-yl)-[1,2,4]triazolo[4,3-a]quinoxaline-4-ylamino]-butyl}-carbamic acid-tert-butylester] was tested, and the IC50 [1, 4] was 68 nM, the IC50 [2, 5] was at most 200 nM and the IC50 [2, 6] was 79 nM.
Compound COCCOc1ccc2c(c1)nc(NCCCCNC(=O)[C@@H](NC(=O)OCC(C)C)C(C)C)c1nnc(C)n12 [Example 398, (S)-(1-{4-[7-(2-methoxy-ethoxy)-1-methyl-[1,2,4]triazolo[4,3-a]quinoxaline-4-ylamino]-butylcarbamoyl}-2-methyl-propyl)-carbamic acid isobutylester] has an IC50 [1, 3] of at most 10 nM, an IC50 [1, 4] of 1 nM and an IC50 [2, 6] of 790 nM.
For COc1ccc2c(c1)nc(NCCCCC(=O)NC(C)C)c1nnc(C)n12 [Example 654, 5-(7-methoxy-1-methyl-[1,2,4]triazolo[4,3-a]quinoxaline-4-ylamino)-pentanoic acid isopropylamide], the IC50 [1, 3] was at most 50 nM, the IC50 [1, 4] was 11 nM and the IC50 [2, 6] was 270 nM.
Work on COc1cc2nc(NCCCCNC(=O)CC(C)C)c3nnc(C)n3c2cc1C(F)(F)F [Example 476, N-[4-(7-methoxy-1-methyl-8-trifluoromethyl-[1,2,4]triazolo[4,3-a]quinoxaline-4-ylamino)-butyl]-3-methyl-butyramide] yielded an IC50 [1, 3] of at most 50 nM, an IC50 [1, 4] of 34 nM and an IC50 [2, 6] of 480 nM.
